Measured values: US6992072B2, “Combating side-effects” (Pharma Nord ApS, priority 2001, dated 2006)

Tests used:
Assay type in all cases: cell-based, human
HepG2 cell line [1] = assay: Intracellular lipids of HepG2 cells, Oil-Red-O staining
Method: Cell culture. The HepG2 cell line, a human hepatoma cell line, is taken from the American Type Culture Collection (ATCC No. HB-8065). It is cultured at 37° C. in a 5% CO2 atmosphere. The culture medium is Dulbecco's Modified Eagle Medium (DMEM-containing 4.5 g/l glucose, 110 mg/l pyruvate, 4 mg/l nicotinamide, 4 mg/l pyridoxal hydrochloride, 4 mg/l thiamine and 0.4 riboflavin), supplemented with 10% fetal bovine serum (50 ml FCS, Mycoplex PAA Laboratories, Linz). On day 1, 2.7×10^6 cells are placed in 75 ml culture flasks (Falcon, Becton Dickinson, USA). On days 5, 10, 15, 20 and 25, the cells are trypsinized and counted; 2.7×10^6 cells are again spread out. The medium is changed on each day of trypsinization and on the third day after replating. Materials: Riboflavin (vitamin B2), thiamine (vitamin B1), ascorbic acid (vitamin C), uridine and ddC are purchased from Sigma (USA). […] A vitamin cocktail consisting of 7.125 mg/l riboflavin, 7.125 mg/l thiamine and 142.5 mg/l vitamin C is used. These pharmacological concentrations exceed the daily requirement by a factor of about one hundred, and meet the safe upper limits according to the recommendations of the European Union for these micro-nutrients. Determining the intracellular lipids: Intracellular lipid droplets' are stained by means of Oil-Red-O (Sigma, USA). […]

[2] = system: mitochondrial DNA (mtDNA); assay: Quantification of mitochondrial DNA by Southern Blot (M/N ratio) in HepG2 cells; conditions: ddC 177 nM; for Content of mitochondrial DNA, M/N-ratio in % of the control: control = HepG2-cells without ddC and without uridine
Method: Cell culture. The HepG2 cell line, a human hepatoma cell line, is taken from the American Type Culture Collection (ATCC No. HB-8065). It is cultured at 37° C. in a 5% CO2 atmosphere. The culture medium is Dulbecco's Modified Eagle Medium (DMEM-containing 4.5 g/l glucose, 110 mg/l pyruvate, 4 mg/l nicotinamide, 4 mg/l pyridoxal hydrochloride, 4 mg/l thiamine and 0.4 riboflavin), supplemented with 10% fetal bovine serum (50 ml FCS, Mycoplex PAA Laboratories, Linz). On day 1, 2.7×10^6 cells are placed in 75 ml culture flasks (Falcon, Becton Dickinson, USA). On days 5, 10, 15, 20 and 25, the cells are trypsinized and counted; 2.7×10^6 cells are again spread out. The medium is changed on each day of trypsinization and on the third day after replating. Materials: Riboflavin (vitamin B2), thiamine (vitamin B1), ascorbic acid (vitamin C), uridine and ddC are purchased from Sigma (USA). The concentrations of uridine are given in the following tables; ddC is used in a concentration of 177 nM, which corresponds to the steady-state plasma levels of patients under HAART. A vitamin cocktail consisting of 7.125 mg/l riboflavin, 7.125 mg/l thiamine and 142.5 mg/l vitamin C is used. These pharmacological concentrations exceed the daily requirement by a factor of about one hundred, and meet the safe upper limits according to the recommendations of the European Union for these micro-nutrients. Quantification of mitochondrial DNA (mtDNA) by means of Southern Blot: The content of mtDNA is determined by a well-known Southern-Blot technique (C. T. Moraes et al., “Quantitative Defects of Mitochondrial DNA”, in: S. DiMauro and D. C. Wallace, “Mitochondrial DNA in Human Pathology”, Raven Press, New York 1993, Chapter 8, pages 97–108). Genomic DNA is extracted from the fatty tissue and cut with the restriction endonuclease Pvull. Five μg of the cut material are separated electrophoretically on a 0.8% agarose gel and transferred to a nylon membrane. The mtDNA is tested with a 12.9 kBp mtDNA fragment (which comprises the nucleotide positions 3470 and 16379 of human mtDNA (S. Anderson et al., Nature 9, 457–65 (1981), and which is marked by means stochastically binding primers with digoxigenin). In order to have an internal standard, digoxigen labeled nuclear DNA (nDNA), which hybridizes to the copy-number 18S-ribosomal DNA gene, serves as a second probe. The signals for mtDNA and nDNA are visualized, according to the recommendations of the manufacturer (Boehringer Mannheim, Germany), with a monoclonal antibody against digoxigenin, which is conjugated with alkaline phosphatase. The signal intensities are quantified by computer by means of standard software. The mtDNA content is expressed as the mtDNA/nDNA (M/N) ratio.

HepG2 cell line [3] = assay: Number of HepG2 cells on the day of trypsinization (survival) in the presence of ddC; conditions: ddC 177 nM; for Number of cells on the day of the trypsinization: HepG2, uridine 200 μM or vitamin cocktail where named
Method: (§1) Cell culture. The HepG2 cell line, a human hepatoma cell line, is taken from the American Type Culture Collection (ATCC No. HB-8065). It is cultured at 37° C. in a 5% CO2 atmosphere. The culture medium is Dulbecco's Modified Eagle Medium (DMEM-containing 4.5 g/l glucose, 110 mg/l pyruvate, 4 mg/l nicotinamide, 4 mg/l pyridoxal hydrochloride, 4 mg/l thiamine and 0.4 riboflavin), supplemented with 10% fetal bovine serum (50 ml FCS, Mycoplex PAA Laboratories, Linz). On day 1, 2.7×10^6 cells are placed in 75 ml culture flasks (Falcon, Becton Dickinson, USA). On days 5, 10, 15, 20 and 25, the cells are trypsinized and counted; 2.7×10^6 cells are again spread out. The medium is changed on each day of trypsinization and on the third day after replating. Materials: Riboflavin (vitamin B2), thiamine (vitamin B1), ascorbic acid (vitamin C), uridine and ddC are purchased from Sigma (USA). The concentrations of uridine are given in the following tables; ddC is used in a concentration of 177 nM, which corresponds to the steady-state plasma levels of patients under HAART. A vitamin cocktail consisting of 7.125 mg/l riboflavin, 7.125 mg/l thiamine and 142.5 mg/l vitamin C is used. These pharmacological concentrations exceed the daily requirement by a factor of about one hundred, and meet the safe upper limits according to the recommendations of the European Union for these micro-nutrients.

HepG2 cell line [4] = assay: L-lactate in the culture medium of HepG2 cells, enzymatic test; conditions: ddC 177 nM; for Lactate values in the medium in percent of the control: control without ddC and without uridine, Day 0 = 100%
Method: as §1, with “micro-nutrients. Lactic acid: 1.5 ml of the remainder of the culture is removed in each case immediately before the trypsinization and the L-lactate in it is determined enzymatically with the lactate test-kit from Roche Diagnostics (order No.1822837) in an automatic analysis device (Roche/Hitachi 917) according to the recommendations of the manufacturer.” for “micro-nutrients.”

| Compound | Compensation for the side effects of ddC (overall, see also Tables 1 to 3) (HepG2 cell line [1]; summary of lipid staining, cell number, mtDNA and lactate) | Reduction of the mtDNA ([2]; HepG2, uridine 200 μM) | Survival of the HepG2-cells in the presence of ddC (HepG2 cell line [3]; uridine 200 μM, 25-day incubation) | Production of lactic acid (HepG2 cell line [4]; HepG2, uridine 200 μM) | Intracellular lipids / steatotic changes, microscopic image (HepG2 cell line [1]; Day 20, Oil-Red-O, 177 nM ddC, 200 μM uridine as printed) | Content of mitochondrial DNA, M/N-ratio in % of the control ([2]; Day 0) | Content of mitochondrial DNA, M/N-ratio in % of the control ([2]; Day 5) | Content of mitochondrial DNA, M/N-ratio in % of the control ([2]; Day 10) | Content of mitochondrial DNA, M/N-ratio in % of the control ([2]; Day 15) | Content of mitochondrial DNA, M/N-ratio in % of the control ([2]; Day 20) | Content of mitochondrial DNA, M/N-ratio in % of the control ([2]; Day 25) | Number of cells on the day of the trypsinization (HepG2 cell line [3]; Day 5, 2.7×10^6 cells replated every 5 days) | Number of cells on the day of the trypsinization (HepG2 cell line [3]; Day 10) | Number of cells on the day of the trypsinization (HepG2 cell line [3]; Day 20) | Number of cells on the day of the trypsinization (HepG2 cell line [3]; Day 25) | Lactate values in the medium in percent of the control (HepG2 cell line [4]; Day 6) | Lactate values in the medium in percent of the control (HepG2 cell line [4]; Day 10) | Lactate values in the medium in percent of the control (HepG2 cell line [4]; Day 15) | Lactate values in the medium in percent of the control (HepG2 cell line [4]; Day 20) | Lactate values in the medium in percent of the control (HepG2 cell line [4]; Day 25) |
| --- | --- | --- | --- | --- | --- | --- | --- | --- | --- | --- | --- | --- | --- | --- | --- | --- | --- | --- | --- | --- |
| O=c1ccn([C@@H]2O[C@H](CO)[C@@H](O)[C@H]2O)c(=O)[nH]1 [uridine] | can compensate for the side effects of ddC | diminishes the reduction of the mtDNA | normalizes the survival of the HepG2-cells in the presence of ddC | diminished by the uridine |  |  |  |  |  |  |  |  |  |  |  |  |  |  |  |  |
| Nc1ccn([C@H]2CC[C@@H](CO)O2)c(=O)n1 [ddC, dideoxycytidine] |  |  |  |  | clearly fewer cells are found, which however, are relatively large and red-colored | 100.0% | 25.6% | 25.1% | 11.5% | 8.3% | 8.4% | 110.0 100,000s | 98.5 100,000s | 66.2 100,000s | 38.4 100,000s | 109.2% | 129.5% | 220.1% | 374.9% | 392.5% |
